The source of these data is article PMC8491554 (Journal of agricultural and food chemistry, 2021).

SMILES strings stand for the structures.

The target in test [1] is T1, SARS-CoV-2 Mpro (Severe acute respiratory syndrome coronavirus 2, UniProt P0DTD1). As to the kind of experiment: biochemical. The note with it: for inhibition at 2 µM / inhibition at 10 µM / inhibition at 50 µM: read-out: inhibition of SARS-CoV-2 Mpro enzyme activity (inhibition rate).
Test [2] has as its target T1, SARS-CoV-2 Mpro. In kind it is binding. The note with it: for SPR response units (RUs) in sensorgrams, up to: highest response in SPR sensorgrams; for binding capacity in SPR sensorgrams (in words): Supporting Information.

As for `O=C1O[C@H]2[C@@H]3OC(=O)c4cc(O)c(O)c(O)c4-c4c(O)c(O)c5oc(=O)c6c(c(O)c(O)c7oc(=O)c4c5c76)-c4c(cc(O)c(O)c4O)C(=O)OC[C@H]3OC(O)[C@@H]2OC(=O)c2cc(O)c(O)c(O)c2-c2c1cc(O)c(O)c2O` (mixture of isomers) [PA, punicalagin], on SARS-CoV-2 Mpro [1], the inhibition (commonly the change of the read-out against control, counted positive when it falls) at 2 µM was determined as 2%; the inhibition at 10 µM came out at 59%; the inhibition at 50 µM was 100%.

On to `O=c1oc2c(O)c(O)cc3c(=O)oc4c(O)c(O)cc1c4c23` [EA, ellagic acid], for which, at SARS-CoV-2 Mpro [1], the inhibition at 2 µM turned out to be 3%, the inhibition at 10 µM came out at 28% and the inhibition at 50 µM turned out to be 57%.

As for `O=C(O)c1cc(O)c(O)c(O)c1` [GLA, gallic acid], the “SPR response units (RUs) in sensorgrams, up to” value (shortened to “SPR response units (RUs)”) at SARS-CoV-2 Mpro [2] is recorded as “up to 30 RU”.

On to `O=C(OC[C@H]1O[C@@H](OC(=O)c2cc(O)c(O)c(O)c2)[C@H](OC(=O)c2cc(O)c(O)c(O)c2)[C@@H](OC(=O)c2cc(O)c(O)c(O)c2)[C@@H]1OC(=O)c1cc(O)c(O)c(O)c1)c1cc(O)c(O)c(O)c1` [PGG, 1,2,3,4,6-penta-O-galloyl-ß-D-glucose], for which, at SARS-CoV-2 Mpro [2], the “SPR response units (RUs)” value was at most 1186 RU. At SARS-CoV-2 Mpro [1], the inhibition at 2 µM was 14%, the inhibition at 10 µM was 73% and the inhibition at 50 µM worked out at 100%.

Turning to `Oc1cccc(O)c1O` [PYG, pyrogallol], at SARS-CoV-2 Mpro [2] (CM5 sensor chip), the reference binding signal result was “less than 10%”. Besides, at SARS-CoV-2 Mpro [2] (PEG sensor chip), the “reference signal (reference binding RUs over binding level RUs)” value is reported as 64%. Besides, at SARS-CoV-2 Mpro [1], the inhibition at 2 µM stood at 20%.

Take `O=C(OC[C@H]1O[C@@H](OC(=O)c2cc(O)c(O)c(OC(=O)c3cc(O)c(O)c(O)c3)c2)[C@H](OC(=O)c2cc(O)c(O)c(OC(=O)c3cc(O)c(O)c(O)c3)c2)[C@@H](OC(=O)c2cc(O)c(O)c(OC(=O)c3cc(O)c(O)c(O)c3)c2)[C@@H]1OC(=O)c1cc(O)c(O)c(OC(=O)c2cc(O)c(O)c(O)c2)c1)c1cc(O)c(O)c(OC(=O)c2cc(O)c(O)c(O)c2)c1` [TA, tannic acid]: the “SPR response units (RUs)” value on SARS-CoV-2 Mpro [2] was “up to 643 RU”. Further, the “inhibition of SARS-CoV-2 Mpro enzyme activity (inhibition rate)” value is 13% against SARS-CoV-2 Mpro [1] (2 μM), 73% on SARS-CoV-2 Mpro [1] (10 μM) and 100% on SARS-CoV-2 Mpro [1] (50 μM).

On to `O=c1oc2cc(O)ccc2c2ccc(O)cc12` [UA, urolithin A], for which, at SARS-CoV-2 Mpro [2], the “binding capacity in SPR sensorgrams (in words)” value was “undetectable binding capacity”.

As to `O=c1oc2cc(O)ccc2c2ccccc12` [UB, urolithin B], at SARS-CoV-2 Mpro [2], the “binding capacity in SPR sensorgrams (in words)” value is on record as “weak binding capacity” and the “SPR response units (RUs)” value is under 10 RU.

Take `O=c1c(O)c(-c2ccc(O)c(O)c2)oc2cc(O)cc(O)c12` [quercetin, reference compound]: the “SPR response units (RUs)” value on SARS-CoV-2 Mpro [2] is given as “up to 103 RU”.
